Assay results as given in US11046662B2, “2-aryl-4-hydroxy-1,3-thiazole derivatives useful as TRPM8-inhibitors in treatment of neuralgia, pain, COPD and asthma” (DOMPÉ FARMACEUTICI S.P.A., priority 2014, dated 2021).
Values belong to the compound of their own block, whether it stands above or below them.

Columns and labels:
human Adrenergic β2 = human Adrenergic β2 (Homo sapiens (Human), UniProt P07550); experiment: GPCR radioligand binding assay; settings: tested at 10 μM in duplicate
human Dopamine D2S = human Dopamine D2S (Homo sapiens (Human), UniProt P14416); experiment: GPCR radioligand binding assay; settings: tested at 10 μM in duplicate
human Opioid δ2 (DOP) = human Opioid δ2 (DOP) (Homo sapiens (Human), UniProt P41143); experiment: GPCR radioligand binding assay; settings: tested at 10 μM in duplicate
human NK1 = human NK1 (Homo sapiens (Human), UniProt P25103); experiment: GPCR radioligand binding assay; settings: tested at 10 μM in duplicate
human Cannabinoid CB2 = human Cannabinoid CB2 (Homo sapiens (Human), UniProt P34972); experiment: GPCR radioligand binding assay; settings: tested at 10 μM in duplicate
human Opioid NOP (ORL1) = human Opioid NOP (ORL1) (Homo sapiens (Human), UniProt P41146); experiment: GPCR radioligand binding assay; settings: tested at 10 μM in duplicate
[1] = Plasma Protein Binding, human; type: in vitro ADME
human Dopamine D3 = human Dopamine D3 (Homo sapiens (Human), UniProt P35462); experiment: GPCR radioligand binding assay; settings: tested at 10 μM in duplicate
human Histamine H1 = human Histamine H1 (Homo sapiens (Human), UniProt P35367); experiment: GPCR radioligand binding assay; settings: tested at 10 μM in duplicate
mechanical allodynia = experiment: Chronic constriction model of pain, mechanical allodynia (Dynamic Plantar Aesthesiometer); type: in vivo, male Sprague-Dawley rats; settings: oral 10 mg/kg
Experimental: (§1) Neuropathic pain behavior will be induced by ligation of the sciatic nerve according to the method described by Bennett G J et al., Pain. 33: 87-107, 1988. Briefly, male Sprague-Dawley rats will be anaesthetized (100 mg/kg ketamine and 10 mg/kg xylazine i.p.) and the left sciatic nerve will be exposed at the level of the thigh by blunt dissection through the biceps femoris. Proximal to the sciatic's trifurcation, about 12 mm of nerve will be freed of adhering tissue and four ligatures will be loosely tied around it with about 1 mm spacing so that the epineural circulation will be preserved. The length of nerve thus affected was 6-8 mm long. The animals will be allowed to recover and used the day after the surgery. Sham animals represent rats operated but not ligated.
(§2) All data were presented as the mean±SEM. Analysis of data was conducted using GraphPad Prism 4.01. Statistical analysis was performed by two-way ANOVA followed by Dunnett's test for multiple comparisons, as appropriate. Statistical significance was set at p<0.05.

human Opioid μ (MOP) = human Opioid μ (MOP) (Homo sapiens (Human), UniProt P35372); experiment: GPCR radioligand binding assay; settings: tested at 10 μM in duplicate
CYP2C9 = CYP2C9 (Homo sapiens (Human), UniProt P11712); experiment: CYP450 Inhibition; type: in vitro ADME; settings: at 10 μM
Rat Plasma Stability = type: in vitro ADME
human Muscarinic M3 = human Muscarinic M3 (Homo sapiens (Human), UniProt P20309); experiment: GPCR radioligand binding assay; settings: tested at 10 μM in duplicate
CYP3A4 = CYP3A4 (Homo sapiens (Human), UniProt P08684); experiment: CYP450 Inhibition; type: in vitro ADME; settings: at 10 μM
hERG channel = hERG channel (Homo sapiens (Human), UniProt Q12809); experiment: hERG inhibition
human Muscarinic M2 = human Muscarinic M2 (Homo sapiens (Human), UniProt P08172); experiment: GPCR radioligand binding assay; settings: tested at 10 μM in duplicate
human Bradykinin B2 = human Bradykinin B2 (Homo sapiens (Human), UniProt P30411); experiment: GPCR radioligand binding assay; settings: tested at 10 μM in duplicate
CLint (rat) = type: in vitro ADME
human Opioid K (KOP) = human Opioid K (KOP) (Homo sapiens (Human), UniProt P41145); experiment: GPCR radioligand binding assay; settings: tested at 10 μM in duplicate
CYP2C19 = CYP2C19 (Homo sapiens (Human), UniProt P33261); experiment: CYP450 Inhibition; type: in vitro ADME; settings: at 10 μM
[2] = Pharmacokinetic profile, intravenous and oral administration; type: in vivo
Experimental: The ADME properties and the pharmacokinetic profile of compound 2 were evaluated.

human Cannabinoid CB1 = human Cannabinoid CB1 (Homo sapiens (Human), UniProt P21554); experiment: GPCR radioligand binding assay; settings: tested at 10 μM in duplicate
human cytochrome isoform = experiment: Effect towards human cytochrome isoforms; type: in vitro ADME; settings: at the maximal concentration of 10 μM
CYP1A2 = CYP1A2 (Homo sapiens (Human), UniProt P05177); experiment: CYP450 Inhibition; type: in vitro ADME; settings: at 10 μM
human Histamine H2 = human Histamine H2 (Homo sapiens (Human), UniProt P25021); experiment: GPCR radioligand binding assay; settings: tested at 10 μM in duplicate
human Adrenergic α1A = human Adrenergic α1A (Homo sapiens (Human), UniProt P35348); experiment: GPCR radioligand binding assay; settings: tested at 10 μM in duplicate
CYP2D6 = CYP2D6 (Homo sapiens (Human), UniProt P10635); experiment: CYP450 Inhibition; type: in vitro ADME; settings: at 10 μM
human Adrenergic β1 = human Adrenergic β1 (Homo sapiens (Human), UniProt P08588); experiment: GPCR radioligand binding assay; settings: tested at 10 μM in duplicate
[3] = molecular target: human Serotoninergic 5-HT1A (Homo sapiens (Human), UniProt P08908); experiment: GPCR radioligand binding assay; settings: tested at 10 μM in duplicate
human TRPM8 = human TRPM8 (Homo sapiens (Human), UniProt Q7Z2W7); experiment: HTS cellular-based calcium assay for human TRPM8 antagonists (FLIPR TETRA); settings: HEK293/hTRPM8 cells, agonist Cooling Agent 10 at EC80, Ca2+ fluorescence
human Adrenergic α2A = human Adrenergic α2A (Homo sapiens (Human), UniProt P08913); experiment: GPCR radioligand binding assay; settings: tested at 10 μM in duplicate
cold allodynia = experiment: Chronic constriction model of pain, cold allodynia (drop of acetone); type: in vivo, male Sprague-Dawley rats; settings: oral 10 mg/kg
Experimental: as §1, §2

TRPV1 = TRPV1 (Homo sapiens (Human), UniProt Q8NER1); experiment: TRPV1 antagonist calcium influx assay; type: cell-based; settings: agonist capsaicin = 100%, ruthenium red = 0
Text: The signal elicited in the presence of the positive control agonist (capsaicin) was set to 100% and the signal in the presence of the antagonist (ruthenium red) was set to 0. […] The signal elicited in the presence of the positive control agonist (GSK1016790A) was set to 100% and the signal in the presence of the antagonist (ruthenium red) was set to 0. […] The signal elicited in the presence of the positive control agonist (allyl isothiocyanate, AITC) was set to 100% and the signal in the presence of the antagonist (ruthenium red) was set to 0.

[4] = Plasma Protein Binding, rat; type: in vitro ADME
human Bradykinin B1 = human Bradykinin B1 (Homo sapiens (Human), UniProt P46663); experiment: GPCR radioligand binding assay; settings: tested at 10 μM in duplicate
[5] = day 7 and day 14, 3 hours and 5 hours post-dose
[6] = day 7 and day 14 after nerve injury, 3 hours after treatment
[7] = oral administration, PO 10 mg/kg
[8] = plasma, intravenous administration, IV 5 mg/kg
[9] = plasma, oral administration, PO 10 mg/kg

Chain of human TRPM8 (Q7Z2W7 whole entry): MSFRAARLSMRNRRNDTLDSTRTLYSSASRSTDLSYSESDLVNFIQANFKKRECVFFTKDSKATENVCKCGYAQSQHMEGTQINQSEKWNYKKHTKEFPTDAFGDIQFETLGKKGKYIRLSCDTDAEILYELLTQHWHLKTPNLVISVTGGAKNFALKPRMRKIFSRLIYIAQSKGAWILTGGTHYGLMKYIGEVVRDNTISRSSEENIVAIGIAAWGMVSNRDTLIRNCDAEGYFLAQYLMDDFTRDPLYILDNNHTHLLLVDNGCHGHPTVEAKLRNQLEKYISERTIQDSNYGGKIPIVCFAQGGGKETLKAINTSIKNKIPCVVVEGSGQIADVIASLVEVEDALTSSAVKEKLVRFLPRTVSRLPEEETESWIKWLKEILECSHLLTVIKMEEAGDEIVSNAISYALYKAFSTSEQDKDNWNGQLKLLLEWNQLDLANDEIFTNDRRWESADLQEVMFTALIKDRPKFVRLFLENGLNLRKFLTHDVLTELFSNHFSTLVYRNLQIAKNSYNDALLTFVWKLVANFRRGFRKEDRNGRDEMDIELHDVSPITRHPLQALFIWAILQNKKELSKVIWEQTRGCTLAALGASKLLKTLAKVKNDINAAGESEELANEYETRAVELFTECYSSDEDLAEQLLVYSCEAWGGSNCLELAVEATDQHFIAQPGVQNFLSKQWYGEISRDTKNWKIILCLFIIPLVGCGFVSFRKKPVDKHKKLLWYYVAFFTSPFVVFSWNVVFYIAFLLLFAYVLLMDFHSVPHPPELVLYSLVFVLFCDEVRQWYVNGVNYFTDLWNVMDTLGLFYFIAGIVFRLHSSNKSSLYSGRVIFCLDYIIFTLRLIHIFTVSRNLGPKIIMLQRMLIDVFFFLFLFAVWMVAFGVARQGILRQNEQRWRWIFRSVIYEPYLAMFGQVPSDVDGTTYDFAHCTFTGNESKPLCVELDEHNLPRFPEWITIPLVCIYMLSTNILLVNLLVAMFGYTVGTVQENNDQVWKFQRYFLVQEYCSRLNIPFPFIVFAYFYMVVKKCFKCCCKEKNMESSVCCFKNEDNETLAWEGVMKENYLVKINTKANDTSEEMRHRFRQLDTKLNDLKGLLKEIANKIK
Chain of hERG channel (Q12809 whole entry): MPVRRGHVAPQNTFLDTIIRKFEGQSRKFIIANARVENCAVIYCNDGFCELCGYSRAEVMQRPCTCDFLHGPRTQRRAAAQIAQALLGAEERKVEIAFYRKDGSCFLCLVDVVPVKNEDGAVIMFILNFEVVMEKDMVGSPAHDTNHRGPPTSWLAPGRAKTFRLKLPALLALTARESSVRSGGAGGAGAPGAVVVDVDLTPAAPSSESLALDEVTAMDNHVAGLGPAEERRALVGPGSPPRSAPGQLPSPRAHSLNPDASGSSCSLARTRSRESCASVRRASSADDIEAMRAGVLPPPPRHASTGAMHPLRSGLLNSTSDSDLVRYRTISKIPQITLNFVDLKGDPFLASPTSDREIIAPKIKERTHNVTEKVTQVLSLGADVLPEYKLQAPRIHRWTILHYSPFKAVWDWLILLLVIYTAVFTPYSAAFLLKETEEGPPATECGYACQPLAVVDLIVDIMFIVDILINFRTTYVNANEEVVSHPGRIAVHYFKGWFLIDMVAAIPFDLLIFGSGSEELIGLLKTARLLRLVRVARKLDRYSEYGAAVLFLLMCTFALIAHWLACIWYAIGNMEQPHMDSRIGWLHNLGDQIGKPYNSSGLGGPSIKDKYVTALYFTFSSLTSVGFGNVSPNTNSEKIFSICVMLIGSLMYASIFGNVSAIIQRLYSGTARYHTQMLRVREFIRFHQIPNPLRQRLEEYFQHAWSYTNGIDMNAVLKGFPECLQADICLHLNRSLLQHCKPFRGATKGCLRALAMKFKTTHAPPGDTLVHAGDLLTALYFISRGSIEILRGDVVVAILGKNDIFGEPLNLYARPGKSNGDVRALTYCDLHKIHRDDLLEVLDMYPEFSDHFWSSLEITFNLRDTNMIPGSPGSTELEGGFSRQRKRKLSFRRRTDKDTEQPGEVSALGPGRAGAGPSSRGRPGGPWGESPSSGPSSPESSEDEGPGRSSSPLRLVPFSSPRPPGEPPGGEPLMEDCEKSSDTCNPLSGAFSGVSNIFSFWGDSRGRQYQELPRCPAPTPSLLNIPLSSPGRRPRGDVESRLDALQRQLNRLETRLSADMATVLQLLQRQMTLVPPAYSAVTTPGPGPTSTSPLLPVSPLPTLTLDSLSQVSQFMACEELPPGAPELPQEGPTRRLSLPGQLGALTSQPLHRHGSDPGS
Chain of human Adrenergic α2A (P08913 whole entry): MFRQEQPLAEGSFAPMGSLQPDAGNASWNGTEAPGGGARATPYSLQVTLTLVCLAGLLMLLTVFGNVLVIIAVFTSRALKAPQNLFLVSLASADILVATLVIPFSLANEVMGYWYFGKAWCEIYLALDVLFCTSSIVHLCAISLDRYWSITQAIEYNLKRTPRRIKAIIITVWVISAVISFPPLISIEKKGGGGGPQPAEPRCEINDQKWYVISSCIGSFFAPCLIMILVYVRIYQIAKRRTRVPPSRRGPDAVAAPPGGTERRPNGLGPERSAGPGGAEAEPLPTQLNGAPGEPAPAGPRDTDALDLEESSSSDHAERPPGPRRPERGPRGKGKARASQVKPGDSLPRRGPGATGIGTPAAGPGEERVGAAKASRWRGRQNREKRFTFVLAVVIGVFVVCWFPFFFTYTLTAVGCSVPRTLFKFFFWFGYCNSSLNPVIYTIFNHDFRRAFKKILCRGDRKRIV
Chain of human Serotoninergic 5-HT1A (P08908 whole entry): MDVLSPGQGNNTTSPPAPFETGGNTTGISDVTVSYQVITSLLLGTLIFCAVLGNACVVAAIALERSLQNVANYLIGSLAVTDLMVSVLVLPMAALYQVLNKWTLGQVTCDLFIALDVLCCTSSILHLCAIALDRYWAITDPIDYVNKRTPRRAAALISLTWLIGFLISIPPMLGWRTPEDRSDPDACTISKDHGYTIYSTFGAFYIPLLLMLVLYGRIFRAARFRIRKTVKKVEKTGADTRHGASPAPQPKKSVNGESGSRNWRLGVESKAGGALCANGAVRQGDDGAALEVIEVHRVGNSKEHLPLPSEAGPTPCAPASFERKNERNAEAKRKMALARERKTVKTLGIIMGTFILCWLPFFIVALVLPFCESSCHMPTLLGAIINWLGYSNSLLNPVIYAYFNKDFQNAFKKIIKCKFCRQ
Chain of human Histamine H2 (P25021 whole entry): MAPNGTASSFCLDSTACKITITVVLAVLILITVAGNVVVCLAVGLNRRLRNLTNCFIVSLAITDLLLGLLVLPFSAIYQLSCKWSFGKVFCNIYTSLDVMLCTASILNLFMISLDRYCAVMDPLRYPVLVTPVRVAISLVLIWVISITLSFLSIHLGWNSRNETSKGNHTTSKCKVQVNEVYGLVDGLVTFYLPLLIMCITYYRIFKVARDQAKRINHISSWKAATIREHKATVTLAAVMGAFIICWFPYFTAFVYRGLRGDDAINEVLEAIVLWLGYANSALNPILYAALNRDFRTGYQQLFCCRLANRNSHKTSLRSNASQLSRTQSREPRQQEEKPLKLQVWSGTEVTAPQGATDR
Chain of human Opioid μ (MOP) (P35372 whole entry): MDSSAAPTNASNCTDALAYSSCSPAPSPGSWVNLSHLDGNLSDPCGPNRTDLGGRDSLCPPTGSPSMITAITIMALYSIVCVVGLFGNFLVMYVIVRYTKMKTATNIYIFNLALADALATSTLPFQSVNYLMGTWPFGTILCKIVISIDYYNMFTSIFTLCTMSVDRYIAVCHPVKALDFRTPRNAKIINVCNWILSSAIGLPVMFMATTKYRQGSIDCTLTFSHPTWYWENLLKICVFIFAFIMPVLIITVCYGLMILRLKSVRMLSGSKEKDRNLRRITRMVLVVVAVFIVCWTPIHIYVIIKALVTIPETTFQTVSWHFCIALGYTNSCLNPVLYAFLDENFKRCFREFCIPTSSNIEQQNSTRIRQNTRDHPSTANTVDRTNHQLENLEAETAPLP
Chain of human NK1 (P25103 whole entry): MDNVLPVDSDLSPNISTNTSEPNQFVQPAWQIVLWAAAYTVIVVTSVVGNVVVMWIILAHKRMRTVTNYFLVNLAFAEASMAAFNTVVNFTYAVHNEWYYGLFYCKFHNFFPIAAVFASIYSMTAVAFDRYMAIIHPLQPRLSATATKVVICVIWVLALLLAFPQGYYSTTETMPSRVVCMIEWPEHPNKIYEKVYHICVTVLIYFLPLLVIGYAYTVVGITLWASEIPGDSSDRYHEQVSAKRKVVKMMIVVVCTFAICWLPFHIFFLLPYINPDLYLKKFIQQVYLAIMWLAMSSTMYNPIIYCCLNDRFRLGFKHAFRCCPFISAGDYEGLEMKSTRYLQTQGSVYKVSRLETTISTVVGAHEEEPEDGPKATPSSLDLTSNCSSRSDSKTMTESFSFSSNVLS
Chain of CYP2D6 (P10635 whole entry): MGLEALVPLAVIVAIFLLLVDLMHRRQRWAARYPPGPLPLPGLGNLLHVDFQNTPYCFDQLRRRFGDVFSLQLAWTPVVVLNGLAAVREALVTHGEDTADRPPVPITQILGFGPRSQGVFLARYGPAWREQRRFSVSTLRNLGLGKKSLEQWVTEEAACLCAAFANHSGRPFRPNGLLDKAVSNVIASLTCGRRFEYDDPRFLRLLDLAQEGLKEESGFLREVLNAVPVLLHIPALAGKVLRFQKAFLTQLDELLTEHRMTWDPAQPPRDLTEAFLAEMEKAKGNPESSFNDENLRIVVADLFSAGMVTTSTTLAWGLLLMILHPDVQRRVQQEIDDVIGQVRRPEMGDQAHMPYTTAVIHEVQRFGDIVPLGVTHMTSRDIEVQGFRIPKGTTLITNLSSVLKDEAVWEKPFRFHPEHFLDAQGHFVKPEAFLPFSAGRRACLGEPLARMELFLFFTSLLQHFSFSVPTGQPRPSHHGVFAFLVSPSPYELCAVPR

SMILES: CCC(=O)c1sc(-c2cccc(F)c2)nc1[O-].[Na+] [Compound 2, sodium 2-(3-fluorophenyl)-5-propanoyl-1,3-thiazol-4-olate]
activity towards human Adrenergic β2 (human Adrenergic β2): inactive
activity towards human Dopamine D2S (human Dopamine D2S): inactive
activity towards human Opioid δ2 (DOP) (human Opioid δ2 (DOP)): inactive
pKa (physchem): 4.18
activity towards human NK1 (human NK1): inactive
activity towards human Cannabinoid CB2 (human Cannabinoid CB2): inactive
activity towards human Opioid NOP (ORL1) (human Opioid NOP (ORL1)): inactive
fraction unbound [1]: 0.0129
activity towards human Dopamine D3 (human Dopamine D3): inactive
activity towards human Histamine H1 (human Histamine H1): inactive
effect on mechanical allodynia (mechanical allodynia; [5]): significantly attenuated
maximal activity, inhibition of mechanical allodynia (mechanical allodynia; [6]): about 50%
activity towards human Opioid μ (MOP) (human Opioid μ (MOP)): inactive
IC50 (CYP2C9): > 30 µM
Rat Plasma Stability (% remaining) (Rat Plasma Stability; at 30 min): 98.2%
Rat Plasma Stability (% remaining) (Rat Plasma Stability; at 60 min): 80.3%
activity towards human Muscarinic M3 (human Muscarinic M3): inactive
IC50 (CYP3A4): > 30 µM
IC50 (hERG channel): > 1000 µM
effect towards hERG channel (hERG channel): none effect
activity towards human Muscarinic M2 (human Muscarinic M2): inactive
activity towards human Bradykinin B2 (human Bradykinin B2): inactive
microsomal CLint (CLint (rat)): 29.4 µL/min/mg
activity towards human Opioid K (KOP) (human Opioid K (KOP)): inactive
IC50 (CYP2C19): > 30 µM
Vds ([2]; intravenous administration, IV 5 mg/kg): 1.78 L/kg
CL [2, 7]: 6.41 mL/min/kg
t1/2 [2, 7]: 2.94 h
clearance [2, 8]: 6.81 mL/min/kg
half-life [2, 8]: 3.01 h
AUC [2, 9]: 26100 ng·h/mL
Cmax [2, 9]: 10300 ng/mL
Tmax [2, 9]: 0.25 h
half-life [2, 9]: 2.94 h
bioavailability ([2]; plasma, oral administration, PO 10 mg/kg vs IV 5 mg/kg): 100%
activity towards human Cannabinoid CB1 (human Cannabinoid CB1): inactive
effect towards any human cytochrome isoform (human cytochrome isoform): no effect
IC50 (CYP1A2): > 30 µM
activity towards human Histamine H2 (human Histamine H2): inactive
activity towards human Adrenergic α1A (human Adrenergic α1A): inactive
IC50 (CYP2D6): > 30 µM
activity towards human Adrenergic β1 (human Adrenergic β1): inactive
activity towards human Serotoninergic 5-HT1A [3]: inactive
IC50 (human TRPM8): 0.028 µM
activity towards human Adrenergic α2A (human Adrenergic α2A): inactive
effect on cold allodynia (cold allodynia; [5]): significantly attenuated
maximal activity, inhibition of cold allodynia (cold allodynia; [6]): about 50%
IC50 (TRPV1): > 10 µM
fraction unbound [4]: 0.025
activity towards human Bradykinin B1 (human Bradykinin B1): inactive

IC50 (human TRPM8): 1.36 µM
SMILES: CC/C(=N\O)c1sc(-c2cccc(F)c2)nc1O [Compound 44, 2-(3-fluorophenyl)-5-[(1E)—N-hydroxypropanimidoyl]-1,3-thiazol-4-ol]

IC50 (human TRPM8): 0.287 µM
SMILES: O=C(c1sc(-c2cccc(F)c2)nc1O)C1CC1 [Compound 45, cyclopropyl[2-(3-fluorophenyl)-4-hydroxy-1,3-thiazol-5-yl]methanone]
